Reference: patent US6743800B1, “Naphthyridine derivatives, processes for their preparation, their use and pharmaceutical compositions comprising them” (Aventis Pharma Deutschland GmbH, priority 1999, dated 2004)

How the values were obtained:
[1] = target: 293 cells cotransfected with αv and β3 subunits of the vitronectin receptor αvβ3 (Homo sapiens, UniProt P05106+P06756); assay: Vitronectin/293 cell test (inhibition of binding of 293 cells to human vitronectin); assay type: cell-based; conditions: inhibition of binding of αvβ3-expressing 293 cells to human vitronectin; read-out: Vn/293 cell test IC50
Description: 2) Vitronectin/293 Cell Test
In this test the inhibition of binding of 293 cells to human vitronectin (Vn) by the compounds of the invention is determined (the test method is abbreviated as Vn/293 cell test in the listing of the test results).
Purification of Human Vitronectin
Human vitronectin was isolated from human plasma and purified by affinity chromatography according to the method of Yatohgo et al., Cell Structure and Function 23 (1988) 281.
293 cells, a human embryonic kidney cell line, which were cotransfected with DNA sequences for the αv and β3 subunits of the vitronectin receptor αvβ3, were selected for a high rate of expression (>500,000 αvβ3 receptors/cell) according to the FACS method. The selected cells were cultured and sorted again by means of FACS in order to obtain a stable cell line (15 D) with expression rates >1,000,000 copies of αvβ3 per cell.
A Linbro 96-well tissue culture plate with a flat bottom was coated overnight at 4° C. with human vitronectin (0.01 mg/ml, 0.05 ml/well) in phosphate-buffered saline solution (PBS) and then blocked with 0.5% strength BSA (bovine serum albumin). Solutions of the test substances from 10^−10 mol/l to 2×10^−3 mol/l in glucose-containing DMEM medium were prepared and 0.05 ml/well of the solution were added to the plate in each case. The cells which expressed high levels of αvβ3 (for example 15 D) were suspended in glucose-containing DMEM medium and the suspension was adjusted to a content of 25,000 cells/0.05 ml of medium. 0.05 ml of this cell suspension was added to each well and the plate was incubated at 37° C. for 90 min. The plate was washed 3 times with warm PBS in order to remove unbound cells. The bound cells were lyzed in citrate buffer (25 mM, pH 5.0) which contained 0.25% Triton X-100. The hexoseamidase substrate p-nitrophenyl-N-acetyl-β-D-glucosaminide was then added and the plate was incubated at 37° C. for 90 min. The reaction was stopped with a glycine (50 mM)/EDTA (5 mM) buffer (pH 10.4) and the absorption of each well was measured at 405 to 650 nm. The data were analyzed according to standard methods.

[2] = target: T1, human vitronectin receptor αvβ3 (Homo sapiens, UniProt P05106+P06756); assay: Kistrin binding assay (αvβ3 ELISA test, K/VnR); conditions: inhibition of binding of kistrin to human vitronectin receptor αvβ3, ELISA
T1 construct: Human vitronectin receptor is obtained from the human placenta according to the method of Pytela et al; from tissue; host or cells: human placenta (alternative: 293 cells co-transfected with αv and β3 DNA)
Excerpt: The inhibition of the binding of kistrin to human vitronectin receptor (VnR) described below is a test method by which the antagonistic action of the compounds of the invention on the vitronectin receptor αvβ3 can be determined (αvβ3 ELISA Test; the test method is abbreviated as “K/VnR” in the listing of the test results).
Kistrin is purified according to the methods of Dennis et al., as described in Proc. Natl. Acad. Sci. USA 87 (1989) 2471 and Proteins: Structure, Function and Genetics 15 (1993) 312.
Purification of Human Vitronectin Receptor (αvβ3)
Human vitronectin receptor is obtained from the human placenta according to the method of Pytela et al., Methods Enzymol. 144 (1987) 475. Human vitronectin receptor αvβ3 can also be obtained from some cell lines (for example from 293 cells, a human embryonic kidney cell line) which are co-transfected with DNA sequences for both subunits αv and β3 of the vitronectin receptor. The subunits are extracted with octyl glycoside and then chromatographed through concanavalin A, heparin-Sepharose and S-300.
Murine monoclonal antibodies which are specific for the β3 subunits of the vitronectin receptor, are prepared according to the method of Newman et al., Blood, 1985, 227, or by a similar process. The rabbit Fab 2 anti-mouse Fc conjugate to horseradish peroxidase (anti-mouse Fc HRP) was obtained from Pel Freeze (Catalog No. 715 305-1).
The ability of substances to inhibit the binding of kistrin to the vitronectin receptor can be determined using an ELISA test. For this purpose, Nunc 96-well microtiter plates are coated with a solution of kistrin (0.002 mg/ml) according to the method of Dennis et al., as described in Proteins: Structure, Function and Genetics 15 (1993) 312. The plates are then washed twice with PBS/0.05% Tween-20 and blocked by incubating (60 min) with bovine serum albumin (BSA, 0.5%, RIA grade or better) in buffer solution (Tris-HCl (50 mM), NaCl (100 mM), MgCl2 (1 mM), CaCl2 (1 mM), MnCl2 (1 mM), pH 7). Solutions of known inhibitors and of the test substances are prepared in concentrations from 2×10^−12 to 2×10^−6 mol/l in assay buffer (BSA (0.5%, RIA grade or better); Tris-HCl (50 mM); NaCl (100 mM), MgCl2 (1 mM), CaCl2 (1 mM), MnCl2 (1 mM), pH 7). The blocked plates are emptied, and in each case 0.025 ml of this solution which contains a defined concentration (2×10^−12 to 2×10^−6 mol/l) either of a known inhibitor or of a test substance, are added to each well. 0.025 ml of a solution of the vitronectin receptor in assay buffer (0.03 mg/ml) is pipetted into each well of the plate and the plate is incubated at room temperature for 60-180 min on a shaker. In the meantime, a solution (6 ml/plate) of a murine monoclonal antibody specific for the β3 subunit of the vitronectin receptor is prepared in assay buffer (0.0015 mg/ml). A second rabbit antibody (0.001 ml of stock solution/6 ml of the murine monoclonal anti-β3 antibody solution) which is an anti-mouse Fc HRP antibody conjugate is added to this solution, and this mixture of murine anti-β3 antibody and rabbit anti-mouse Fc HRP antibody conjugate is incubated during the time of the receptor-inhibitor incubation. The test plates are washed four times with PBS solution which contains 0.05% Tween-20, and in each case 0.05 ml/well of the antibody mixture is pipetted into each well of the plate and incubated for 60-180 min. The plate is washed four times with PBS/0.05% Tween-20 and then developed with 0.05 ml/well of a PBS solution which contains 0.67 mg/ml of o-phenylenediamine and 0.012% of H2O2 . Alternatively to this, o-phenylenediamine can be employed in a buffer (pH 5) which contains Na3PO4 and citric acid. The color development is stopped using 1 N H2SO4 (0.05 ml/well). The absorption for each well is measured at 492-405 nm and the data are evaluated by standard methods.

[3] = system: bone resorption by osteoclasts; assay: Pit Assay (osteoclast resorption test); assay type: cell-based; conditions: inhibition of bone resorption
Excerpt: The inhibition of bone resorption by the compounds of the invention can be determined, for example, with the aid of an osteoclast resorption test (“Pit Assay”), for example analogously to WO-A-95/32710 which is incorporated herein by reference.

T1 sequence (P06756 31-889 limits assumed): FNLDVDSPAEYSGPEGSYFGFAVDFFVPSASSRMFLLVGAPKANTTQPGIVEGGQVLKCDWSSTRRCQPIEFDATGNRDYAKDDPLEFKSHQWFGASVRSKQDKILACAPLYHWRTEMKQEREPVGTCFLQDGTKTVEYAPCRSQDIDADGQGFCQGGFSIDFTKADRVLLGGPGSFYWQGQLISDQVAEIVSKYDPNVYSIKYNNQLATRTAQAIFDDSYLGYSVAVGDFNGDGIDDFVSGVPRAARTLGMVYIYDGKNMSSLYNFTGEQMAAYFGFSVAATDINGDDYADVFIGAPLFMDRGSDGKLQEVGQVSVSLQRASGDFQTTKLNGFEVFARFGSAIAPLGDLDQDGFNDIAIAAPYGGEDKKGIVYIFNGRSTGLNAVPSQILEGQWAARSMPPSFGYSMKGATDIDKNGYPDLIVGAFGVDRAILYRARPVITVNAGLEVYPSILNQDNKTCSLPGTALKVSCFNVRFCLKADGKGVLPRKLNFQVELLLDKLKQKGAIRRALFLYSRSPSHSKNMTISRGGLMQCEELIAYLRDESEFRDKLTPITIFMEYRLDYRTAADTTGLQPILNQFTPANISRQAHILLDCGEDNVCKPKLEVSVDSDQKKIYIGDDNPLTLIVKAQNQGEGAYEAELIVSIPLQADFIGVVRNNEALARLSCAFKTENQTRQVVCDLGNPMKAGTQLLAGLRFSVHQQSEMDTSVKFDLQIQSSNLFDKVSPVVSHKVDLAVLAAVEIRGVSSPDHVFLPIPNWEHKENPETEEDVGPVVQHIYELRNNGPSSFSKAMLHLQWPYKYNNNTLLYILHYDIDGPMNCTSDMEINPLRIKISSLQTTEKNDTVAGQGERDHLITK
T1 sequence (P06756 891-1048 partner limits assumed): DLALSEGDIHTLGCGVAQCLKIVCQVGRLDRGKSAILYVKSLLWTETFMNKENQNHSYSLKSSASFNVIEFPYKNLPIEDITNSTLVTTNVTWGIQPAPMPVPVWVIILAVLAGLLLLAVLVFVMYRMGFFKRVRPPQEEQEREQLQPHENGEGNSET
T1 sequence (P05106 27-788): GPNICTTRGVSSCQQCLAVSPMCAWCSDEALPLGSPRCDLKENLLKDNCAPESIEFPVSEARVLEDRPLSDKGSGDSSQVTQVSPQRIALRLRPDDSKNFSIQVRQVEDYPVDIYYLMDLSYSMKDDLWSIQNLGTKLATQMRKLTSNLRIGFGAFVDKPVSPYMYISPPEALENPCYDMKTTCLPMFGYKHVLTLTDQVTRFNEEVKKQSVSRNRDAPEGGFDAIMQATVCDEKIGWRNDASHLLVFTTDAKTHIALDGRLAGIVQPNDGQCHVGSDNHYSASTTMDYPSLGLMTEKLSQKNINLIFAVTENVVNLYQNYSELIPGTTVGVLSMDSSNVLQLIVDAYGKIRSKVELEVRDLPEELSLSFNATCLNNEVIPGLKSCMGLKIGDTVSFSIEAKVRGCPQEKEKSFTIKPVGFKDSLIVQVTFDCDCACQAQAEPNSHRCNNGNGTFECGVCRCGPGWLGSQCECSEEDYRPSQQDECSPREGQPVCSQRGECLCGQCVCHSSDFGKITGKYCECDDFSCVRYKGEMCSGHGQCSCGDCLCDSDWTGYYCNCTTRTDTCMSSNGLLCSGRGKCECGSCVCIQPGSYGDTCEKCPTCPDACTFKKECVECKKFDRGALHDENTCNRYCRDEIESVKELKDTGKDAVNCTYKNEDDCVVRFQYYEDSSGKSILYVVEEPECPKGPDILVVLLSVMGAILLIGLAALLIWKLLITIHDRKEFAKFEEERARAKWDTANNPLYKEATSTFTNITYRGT
Sequence of 293 cells cotransfected with αv and β3 subunits of the vitronectin receptor αvβ3 (P05106 whole entry): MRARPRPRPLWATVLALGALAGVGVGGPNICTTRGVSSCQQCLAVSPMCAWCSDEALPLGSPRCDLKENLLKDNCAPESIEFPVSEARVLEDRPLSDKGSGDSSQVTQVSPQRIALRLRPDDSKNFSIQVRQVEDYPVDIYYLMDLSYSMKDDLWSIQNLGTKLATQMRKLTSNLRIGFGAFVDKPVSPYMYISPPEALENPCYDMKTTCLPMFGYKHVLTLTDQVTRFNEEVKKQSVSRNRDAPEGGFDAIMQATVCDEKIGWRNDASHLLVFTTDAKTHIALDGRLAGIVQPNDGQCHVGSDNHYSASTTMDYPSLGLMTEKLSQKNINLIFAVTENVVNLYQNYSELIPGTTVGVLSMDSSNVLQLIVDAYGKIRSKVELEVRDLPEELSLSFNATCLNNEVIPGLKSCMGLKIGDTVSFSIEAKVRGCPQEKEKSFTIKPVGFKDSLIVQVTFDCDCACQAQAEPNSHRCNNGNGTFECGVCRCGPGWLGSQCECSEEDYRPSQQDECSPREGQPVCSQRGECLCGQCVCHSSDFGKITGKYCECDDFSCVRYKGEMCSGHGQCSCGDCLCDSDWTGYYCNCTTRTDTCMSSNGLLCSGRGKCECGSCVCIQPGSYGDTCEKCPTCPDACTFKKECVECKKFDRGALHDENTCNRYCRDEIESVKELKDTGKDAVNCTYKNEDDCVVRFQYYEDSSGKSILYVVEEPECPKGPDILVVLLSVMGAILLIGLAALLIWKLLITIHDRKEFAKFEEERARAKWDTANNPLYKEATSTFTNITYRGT
Sequence of 293 cells cotransfected with αv and β3 subunits of the vitronectin receptor αvβ3 (P06756 whole entry): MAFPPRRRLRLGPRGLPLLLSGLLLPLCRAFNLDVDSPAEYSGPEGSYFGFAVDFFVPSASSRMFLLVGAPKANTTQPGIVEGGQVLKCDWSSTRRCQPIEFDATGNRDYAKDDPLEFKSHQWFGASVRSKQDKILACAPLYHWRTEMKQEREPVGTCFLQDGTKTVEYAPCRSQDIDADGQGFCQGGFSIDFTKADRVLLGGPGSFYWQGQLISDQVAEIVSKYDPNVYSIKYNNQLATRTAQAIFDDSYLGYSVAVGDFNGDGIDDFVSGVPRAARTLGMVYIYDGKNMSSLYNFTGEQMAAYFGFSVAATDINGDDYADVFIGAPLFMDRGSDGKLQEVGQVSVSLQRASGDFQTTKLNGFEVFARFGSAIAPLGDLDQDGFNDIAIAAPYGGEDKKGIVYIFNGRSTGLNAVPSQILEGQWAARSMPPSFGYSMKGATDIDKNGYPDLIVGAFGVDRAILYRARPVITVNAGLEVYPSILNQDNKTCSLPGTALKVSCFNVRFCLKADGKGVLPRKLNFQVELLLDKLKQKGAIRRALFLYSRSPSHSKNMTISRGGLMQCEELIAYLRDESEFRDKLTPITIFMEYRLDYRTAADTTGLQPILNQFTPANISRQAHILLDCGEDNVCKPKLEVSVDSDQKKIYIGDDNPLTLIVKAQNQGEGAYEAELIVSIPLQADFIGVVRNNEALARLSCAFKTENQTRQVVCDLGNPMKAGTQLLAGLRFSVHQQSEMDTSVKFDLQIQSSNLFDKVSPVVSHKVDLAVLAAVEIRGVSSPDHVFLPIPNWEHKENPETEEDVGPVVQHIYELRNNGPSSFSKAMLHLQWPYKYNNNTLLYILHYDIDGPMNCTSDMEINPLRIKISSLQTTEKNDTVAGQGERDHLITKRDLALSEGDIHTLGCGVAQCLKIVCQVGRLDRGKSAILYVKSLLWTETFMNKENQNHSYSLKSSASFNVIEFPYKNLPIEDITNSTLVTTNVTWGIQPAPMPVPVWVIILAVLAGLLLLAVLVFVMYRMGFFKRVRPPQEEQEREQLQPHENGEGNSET

| IC50 [1] [nM] | IC50 [2] [nM] | IC50 [3] [nM] | SMILES |
| --- | --- | --- | --- |
| 24 | 6.4 | < 10 | O=C(O)[C@H](Cn1cnc2c(N3CCC(c4ccc5c(n4)NCCC5)CC3)ncnc21)NS(=O)(=O)c1cccc2ccccc12 [Example 4, (2S)-2-(Naphthalene-1-sulfonylamino)-3-(6-(4-(5,6,7,8-tetrahydro-[1,8]naphthyridin-2-yl)-piperidin-1-yl)-purin-9-yl)-propionic acid] |
| 22 | 5 |  | O=C(O)[C@H](Cn1cnc2c(N3CCC(c4ccc5c(n4)NCCC5)CC3)ncnc21)NS(=O)(=O)c1ccc(C(F)(F)F)cc1 [Example 5, (2S)-3-(6-(4-(5,6,7,8-Tetrahydro-[1,8]naphthyridin-2-yl)-piperidin-1-yl)-purin-9-yl)-2-(4-trifluoromethylbenzenesulfonylamino)-propionic acid] |
| 78 | 10 |  | O=C(N[C@@H](Cn1cnc2c(N3CCC(c4ccc5c(n4)NCCC5)CC3)ncnc21)C(=O)O)OCc1ccccc1 [Example 1, (2S)-2-Benzyloxycarbonylamino-3-(6-(4-(5,6,7,8-tetrahydro-[1,8]naphthyridin-2-yl)-piperidin-1-yl)-purin-9-yl)-propionic acid] |
| 115 | 18 |  | CCCCS(=O)(=O)N[C@@H](Cn1cnc2c(N3CCC(c4ccc5c(n4)NCCC5)CC3)ncnc21)C(=O)O [Example 6, (2S)-2-(Butane-1-sulfonylamino)-3-(6-(4-(5,6,7,8-tetrahydro-[1,8]naphthyridin-2-yl)-piperidin-1-yl)-purin-9-yl)-propionic acid] |
| 15 | 5.1 | 0.3 | O=C(O)[C@H](Cn1cnc2c(N3CCC(c4ccc5c(n4)NCCC5)CC3)ncnc21)NS(=O)(=O)c1ccc(Cl)cc1 [Example 3, (2S)-2-(4-Chlorobenzenesulfonylamino)-3-(6-(4-(5,6,7,8-tetrahydro-[1,8]naphthyridin-2-yl)-piperidin-1-yl)-purin-9-yl)-propionic acid] |
| 23 | 4.8 |  | O=C(O)[C@H](Cn1cnc2c(N3CCC(c4ccc5c(n4)NCCC5)CC3)ncnc21)NS(=O)(=O)c1ccccc1 [Example 2, (2S)-2-Benzenesulfonylamino-3-(6-(4-(5,6,7,8-tetrahydro-[1,8]naphthyridin-2-yl)-piperidin-1-yl)-purin-9-yl)-propionic acid] |
